From patent US12679851B2, “Methyl-substituted benzobisoxazole compound and use thereof” (TONGHUA DONGBAO PHARMACEUTICAL CO., LTD., priority 2020, dated 2026)

How the values were obtained:
[1] = biological target: GLP-1 receptor (Homo sapiens, UniProt P43220); assay: Cell activity test in vitro (cAMP detection, GLP-1 HEK293 cells); format: cell-based; conditions: HEK293 host cell
Description: The cells were constructed by Wuxi New Drug Development Co., Ltd. Shanghai.
The compound was formulated with DMSO to a working concentration of 30 μM. In this test, the usage amount of each sample was 5 μL.
The pH was adjusted to 7.4 and the volume was fixed to 25 mL with HBSS 1×.
Preparation of cAMP detection reagent: 250 μL of cAMP-D2 and 250 μL of anti-cAMP cryptate reagent were added to 4 mL of lysis buffer, and mixed gently.
The test compound was diluted 3 times by 10 points with a starting concentration of 30 μM, and the dilutions were completed by Bravo.
The reference compound exenatide was diluted 3 times by 10 points with a starting concentration of 500 nM, and the dilutions were completed by Bravo.
• 1) 100 nL of compound was transferred to OptiPlate-384 plate using Echo. • 2) OptiPlate-384 plate was centrifuged at 1000 rpm for 5 seconds. c) Preparation of cell suspension • 1) A GLP-1 cell cryopreservation tube was quickly thawed in 37° C. warm water. • 2) The cell suspension was transferred to a Transfer 15 mL of centrifuge tube and gently rinsed with 10 mL of HBSS. • 3) The centrifuge tube was centrifuged at 1000 rpm at room temperature for 1 minute. • 4) The supernatant was discarded. • 5) The cells at the bottom were gently dispersed and gently rinsed with 10 mL of HBSS, then the cells were centrifuged for sedimentation, and finally the cells were re-suspended in experimental buffer. • 6) Cell density and activity were measured by using Vi-cell. • 7) The concentration of GLP-1 cells was diluted to 2.0*10^5/mL with the experimental buffer. • 8) […] of diluted cell suspension was transferred into OptiPlate-384 plate. • 9) The cells were incubated at room temperature for 30 minutes. d) Addition of detection reagents: • 1) 10 μL of 800 nM gradient diluted cAMP standard was added to the empty well of OptiPlate-384 plate. • 2) 10 μL of cAMP detection reagent was added. • 3) OptiPlate-384 plate was covered with TopSeal-A film and incubated for 60 min at room temperature.
The TopSeal-A was removed, and the EnVision reading was performed.

[2] = biological target: T1, CYP1A2 (Homo sapiens, UniProt P05177); assay: Cytochrome P450 isoenzyme inhibition, human liver microsomes; format: in vitro ADME
T1 construct: from tissue; host or cells: human liver microsomes
T1 sequence (P05177 1-516): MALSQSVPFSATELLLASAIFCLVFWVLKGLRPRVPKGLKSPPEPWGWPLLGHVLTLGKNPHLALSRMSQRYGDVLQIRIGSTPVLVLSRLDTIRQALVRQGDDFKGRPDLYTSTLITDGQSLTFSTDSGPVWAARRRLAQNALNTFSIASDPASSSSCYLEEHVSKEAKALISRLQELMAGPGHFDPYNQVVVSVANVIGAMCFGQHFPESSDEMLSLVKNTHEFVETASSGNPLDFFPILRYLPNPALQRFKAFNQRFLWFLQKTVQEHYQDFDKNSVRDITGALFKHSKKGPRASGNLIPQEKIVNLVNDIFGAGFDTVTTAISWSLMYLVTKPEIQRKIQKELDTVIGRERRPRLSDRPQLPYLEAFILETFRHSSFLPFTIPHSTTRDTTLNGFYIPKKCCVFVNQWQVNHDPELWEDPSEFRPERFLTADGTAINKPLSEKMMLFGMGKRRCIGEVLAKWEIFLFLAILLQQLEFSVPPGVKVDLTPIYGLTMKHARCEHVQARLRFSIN
Description: (§1) To test the inhibitory effects of the test compounds on the activities of human liver microsomal cytochrome P450 isoenzymes (CYP1A2, CYP2C9, CYP2C19, CYP2D6 and CYP3A4).
(§2) Firstly, the test compound (10.0 mM) was diluted in gradient to prepare a working solution (100× final concentration), and the working solution concentrations were 5.00, 1.50, 0.500, 0.150, 0.0500, 0.0150 and 0.00500 mM respectively. At the same time, the working solution of each positive inhibitor and its specific substrate mixture of P450 isoenzymes (CYP1A2, CYP2C9, CYP2C19, CYP2D6 and CYP3A4) was prepared; the human liver microsomes stored in the refrigerator below −60° C. were thawed on ice. When the human liver microsomes were completely dissolved, then diluted with potassium phosphate buffer (PB) to prepare a working solution with a certain concentration (0.253 mg/mL).
(§3) Firstly, 20.0 μL of substrate mixture was added to the reaction plate (20.0 μL of PB was added to the blank well), then 158 μL of human liver microsome working solution was added to the reaction plate, and the reaction plate was placed on ice for later use. At this time, 2.00 μL of test compound (N=1) and specific inhibitor (N=2) of each concentration were added to the corresponding well, and the group without inhibitor (test compound or positive inhibitor) was added with the corresponding organic solvent as a of control sample (control sample of test compound was dimethyl sulfoxide:methanol=1:1, positive control samples were all dimethyl sulfoxide:methanol=1:9). After pre-incubation in 37° C. water bath for 10 minutes, 20.0 μL of a coenzyme factor (NADPH) solution was added to the reaction plate and incubated in 37° C. water bath for 10 minutes. Then 400 μL of pre-cooled acetonitrile solution (internal standard containing 200 ng/mL tolbutamide and labetalol) was added to stop the reaction; the reaction plate was placed in a shaker and shaken for 10 min to mix evenly. Then the reaction plate was centrifuged at 4° C. and 4000 rpm for 20 min. 200 μL of supernatant was taken and added to 100 μL of water for sample dilution. Finally, the plate was sealed, shaken for 10 minutes to mix evenly for LC/MS/MS detection.

[3] = biological target: T2, CYP2C19 (Homo sapiens, UniProt P33261); assay: as above; format: in vitro ADME
T2 construct: human liver microsomes (HLM) were used as the incubation system; from tissue; host or cells: human liver microsomes
T2 sequence (P33261 whole entry): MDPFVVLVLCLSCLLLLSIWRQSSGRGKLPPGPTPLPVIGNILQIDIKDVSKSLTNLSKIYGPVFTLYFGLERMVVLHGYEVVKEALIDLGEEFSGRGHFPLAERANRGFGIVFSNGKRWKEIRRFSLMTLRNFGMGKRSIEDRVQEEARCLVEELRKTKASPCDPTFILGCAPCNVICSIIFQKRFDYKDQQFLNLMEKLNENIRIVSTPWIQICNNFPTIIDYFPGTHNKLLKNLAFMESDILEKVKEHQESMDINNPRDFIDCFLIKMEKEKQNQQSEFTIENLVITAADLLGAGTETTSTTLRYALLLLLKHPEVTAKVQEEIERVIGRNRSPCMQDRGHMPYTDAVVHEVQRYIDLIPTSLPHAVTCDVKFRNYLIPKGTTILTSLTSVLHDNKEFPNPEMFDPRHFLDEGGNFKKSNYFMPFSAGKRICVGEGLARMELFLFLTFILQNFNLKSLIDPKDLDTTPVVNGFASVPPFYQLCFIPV
Description: as §1, §2, §3

[4] = biological target: T3, CYP2C9 (Homo sapiens, UniProt P11712); assay: as above; format: in vitro ADME
T3 construct: from tissue; host or cells: human liver microsomes
T3 sequence (P11712 whole entry): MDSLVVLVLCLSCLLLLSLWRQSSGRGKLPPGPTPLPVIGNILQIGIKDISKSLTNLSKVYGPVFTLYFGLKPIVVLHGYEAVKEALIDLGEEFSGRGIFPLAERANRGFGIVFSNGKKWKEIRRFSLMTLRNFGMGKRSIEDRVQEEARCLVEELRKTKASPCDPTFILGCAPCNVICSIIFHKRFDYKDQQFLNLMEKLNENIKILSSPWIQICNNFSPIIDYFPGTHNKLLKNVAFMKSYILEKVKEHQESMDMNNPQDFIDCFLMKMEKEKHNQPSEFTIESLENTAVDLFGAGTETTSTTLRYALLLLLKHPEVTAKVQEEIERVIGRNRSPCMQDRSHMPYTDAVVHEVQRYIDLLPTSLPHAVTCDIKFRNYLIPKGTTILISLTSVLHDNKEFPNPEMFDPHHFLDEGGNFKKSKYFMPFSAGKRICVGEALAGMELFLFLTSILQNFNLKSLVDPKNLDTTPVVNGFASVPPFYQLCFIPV
Description: as §1, §2, §3

[5] = biological target: T4, CYP2D6 (Homo sapiens, UniProt P10635); assay: as above; format: in vitro ADME
T4 construct: from tissue; host or cells: human liver microsomes
T4 sequence (P10635 whole entry): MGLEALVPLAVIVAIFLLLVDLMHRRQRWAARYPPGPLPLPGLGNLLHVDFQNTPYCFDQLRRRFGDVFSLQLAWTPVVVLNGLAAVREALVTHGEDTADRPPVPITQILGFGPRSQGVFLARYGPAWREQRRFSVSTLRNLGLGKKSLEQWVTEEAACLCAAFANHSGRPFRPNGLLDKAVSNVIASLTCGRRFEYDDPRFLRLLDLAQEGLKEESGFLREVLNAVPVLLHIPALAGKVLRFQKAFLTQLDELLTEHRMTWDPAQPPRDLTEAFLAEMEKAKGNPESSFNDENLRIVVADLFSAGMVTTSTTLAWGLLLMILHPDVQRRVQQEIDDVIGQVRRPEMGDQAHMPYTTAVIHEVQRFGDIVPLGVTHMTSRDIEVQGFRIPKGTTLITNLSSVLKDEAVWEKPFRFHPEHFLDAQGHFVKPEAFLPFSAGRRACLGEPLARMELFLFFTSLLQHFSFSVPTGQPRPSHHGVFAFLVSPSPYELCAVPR
Description: as §1, §2, §3

[6] = biological target: T5, CYP3A4 (Homo sapiens, UniProt P08684); assay: as above; format: in vitro ADME; conditions: CYP3A4-M
T5 construct: from tissue; host or cells: human liver microsomes
T5 sequence (P08684 whole entry): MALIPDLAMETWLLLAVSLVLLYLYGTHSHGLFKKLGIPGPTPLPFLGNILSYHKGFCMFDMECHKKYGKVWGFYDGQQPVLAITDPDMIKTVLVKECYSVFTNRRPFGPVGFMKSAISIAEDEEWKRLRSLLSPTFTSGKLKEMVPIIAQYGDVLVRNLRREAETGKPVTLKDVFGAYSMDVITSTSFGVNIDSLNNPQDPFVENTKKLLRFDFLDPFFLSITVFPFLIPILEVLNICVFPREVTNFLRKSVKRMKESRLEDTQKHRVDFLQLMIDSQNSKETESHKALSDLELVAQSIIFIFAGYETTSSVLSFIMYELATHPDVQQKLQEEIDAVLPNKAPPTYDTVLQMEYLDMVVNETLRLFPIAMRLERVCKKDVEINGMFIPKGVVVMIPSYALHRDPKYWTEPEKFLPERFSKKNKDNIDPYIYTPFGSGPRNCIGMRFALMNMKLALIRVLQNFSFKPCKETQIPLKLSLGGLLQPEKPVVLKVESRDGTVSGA
Description: as §1, §2, §3

[7] = biological target: T2, CYP2C19; assay: Cytochrome P450 isoenzyme time-dependent inhibition, human liver microsomes; format: in vitro ADME
Description: To test the time-dependent inhibitory effect of the test compounds on the activity of human liver microsomal cytochrome P450 isoenzyme CYP2C19.
The experiment was divided into two groups. In the first group, human liver microsomes (HLM) were used as the incubation system, and a series of concentrations of test samples were added to the incubation system, and then coenzyme factor (NADPH) solution was added, and pre-incubated at 37° C. for 30 minutes. After pre-incubation, the probe substrate solution was added, and after incubation for a certain time, the reaction was terminated; the amount of probe substrate metabolites produced in the incubation solution was measured, and the enzyme activity was calculated. The second group of reactions was to use human liver microsomes (HLM) as the incubation system, and a series of concentrations of test samples were added to the incubation system, and then potassium phosphate buffer was added, and pre-incubated at 37° C. for 30 minutes. After pre-incubation, a mixed solution of NADPH and probe substrate was added. After incubation for a certain time, the reaction was terminated, the amount of probe substrate metabolites produced in the incubation solution was measured, and the enzyme activity was calculated.
Firstly, the test compound (10.0 mM) was diluted in gradient to prepare a working solution (100× final concentration), and the working solution concentrations were 5.00, 1.65, 0.500, 0.165, 0.0500, 0.0165 and 0.00500 mM respectively. At the same time, the positive inhibitor of P450 isoenzyme CYP2C19, probe substrate and NADPH working solution were prepared; the human liver microsomes stored in the refrigerator below −60° C. were thawed on ice. When the human liver microsomes were completely dissolved, then diluted with potassium phosphate buffer (PB) to prepare a working solution with a certain concentration (0.169 mg/mL).
Then 147.5 μL of human liver microsome working solution was added to the reaction plate, and the reaction plate was placed on ice for use. […]

[8] = Cynomolgus monkey in vivo DMPK study; conditions: male cynomolgus monkeys, single oral 0.5 mg/kg
Description: Male cynomolgus monkeys were used as test animals, and the plasma concentration of the compound was determined after a single oral administration and the pharmacokinetic behavior was evaluated.
Two healthy male cynomolgus monkeys (fasting) were selected as the oral group. Oral vehicle was 20% hydroxypropyl-p-cyclodextrin aqueous solution. After the test compound was mixed with the vehicle, vortexed and sonicated to prepare 0.1 mg/mL approximately clear solution. The oral dosage of cynomolgus monkey was 0.5 mg/kg. After oral administration, whole blood was collected for a certain time to prepare plasma. The drug concentration was analyzed by LC-MS/MS method, and the pharmacokinetic parameters were calculated by Phoenix WinNonlin 6.3.

Chain of GLP-1 receptor (P43220 24-463): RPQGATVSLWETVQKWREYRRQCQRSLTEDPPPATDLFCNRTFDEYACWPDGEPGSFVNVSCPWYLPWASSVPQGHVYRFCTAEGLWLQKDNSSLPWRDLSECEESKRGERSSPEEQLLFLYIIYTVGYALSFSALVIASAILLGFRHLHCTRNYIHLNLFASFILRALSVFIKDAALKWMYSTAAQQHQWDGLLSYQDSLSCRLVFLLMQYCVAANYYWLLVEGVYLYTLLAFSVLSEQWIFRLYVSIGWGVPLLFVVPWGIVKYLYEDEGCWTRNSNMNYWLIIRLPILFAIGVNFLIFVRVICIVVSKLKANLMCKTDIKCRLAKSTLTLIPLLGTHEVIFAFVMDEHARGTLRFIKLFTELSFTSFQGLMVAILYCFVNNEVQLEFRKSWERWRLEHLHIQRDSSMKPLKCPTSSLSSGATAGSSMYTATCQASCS

| SMILES | EC50 [1] [µM] | IC50 [2] [µM] | IC50 [3] [µM] | IC50 [4] [µM] | IC50 [5] [µM] | IC50 [6] [µM] | Time-dependent inhibition (Yes or No) [7] | IC50 ([7]; 30 min pre-incubation with NADPH) [µM] | IC50 ([7]; 30 min pre-incubation without NADPH) [µM] | half-life ([8]; cynomolgus monkey, plasma) [h] | Cmax ([8]; cynomolgus monkey, plasma) [nM] | Oral DNAUC ([8]; DNAUC = AUCPO/Dose) [nM · h/mpk] |
| --- | --- | --- | --- | --- | --- | --- | --- | --- | --- | --- | --- | --- |
| CC1(c2ccc(Cl)cc2F)Oc2cccc(N3CCN(Cc4nc5sc(C(=O)O)cc5n4CC4CCO4)CC3)c2O1 (single isomer, unassigned) [Compound 005A] | 0.00015 | > 50 | > 50 | 30.8 | > 50 | > 50 | No | > 50 | 44.3 | – | – | – |
| CC1(c2ccc(Cl)cc2F)Oc2cccc(C3CCN(Cc4nc5sc(C(=O)O)c(F)c5n4C[C@@H]4CCO4)CC3)c2O1 (single isomer, unassigned) [Compound 006] | 0.00039 | 38.8 | > 50 | 21.6 | > 50 | 48.7 | – | – | – | – | – | – |
| CC1(c2ccc(Cl)cc2F)Oc2cccc(C3CCN(Cc4nc5sc(C(=O)O)cc5n4C[C@@H]4CCO4)CC3)c2O1 (single isomer, unassigned) [Compound 004] | 0.0002 | 43.7 | 23.6 | 31.9 | > 50 | 40.8 | – | – | – | 3.94 | 132 | 1056 |

Next, values leading:

| EC50 [1] [µM] | IC50 [2] [µM] | IC50 [3] [µM] | IC50 [4] [µM] | IC50 [5] [µM] | IC50 [6] [µM] | Time-dependent inhibition (Yes or No) [7] | IC50 ([7]; 30 min pre-incubation with NADPH) [µM] | IC50 ([7]; 30 min pre-incubation without NADPH) [µM] | half-life ([8]; cynomolgus monkey, plasma) [h] | Cmax ([8]; cynomolgus monkey, plasma) [nM] | Oral DNAUC ([8]; DNAUC = AUCPO/Dose) [nM · h/mpk] | SMILES |
| --- | --- | --- | --- | --- | --- | --- | --- | --- | --- | --- | --- | --- |
| 0.00033 | – | – | – | – | – | – | – | – | – | – | – | C[C@]1(c2ccc(C#N)cc2F)Oc2cccc(C3=CCN(Cc4nc5sc(C(=O)O)cc5n4C[C@@H]4CCO4)CC3)c2O1 [Compound 011A] |
| 0.00152 | – | – | – | – | – | – | – | – | – | – | – | C[C@]1(c2ccc(C#N)cc2F)Oc2cccc(C3=CCN(Cc4nc5cc(C(=O)O)sc5n4C[C@@H]4CCO4)CC3)c2O1 [Compound 011B] |
